Test results from ChEMBL document CHEMBL3576804, “Novel Potent Orthosteric Antagonist of ASIC1a Prevents NMDAR-Dependent LTP Induction” (J Med Chem, 2015).
Activity calls are given as the source filed them. The rule behind the calls is not given here.

Key:
[1] = biological target: T1, Acid-sensing ion channel 1 (Homo sapiens) (UniProt P78348); test: Inhibition of human ASIC1a endogenously expressed in HEK293 cells clamped at -100 mV gated ionic current at 100 uM at pH 5.0 by standard whole cell patch clamp assay; format: cell-based
T1 sequence (whole entry): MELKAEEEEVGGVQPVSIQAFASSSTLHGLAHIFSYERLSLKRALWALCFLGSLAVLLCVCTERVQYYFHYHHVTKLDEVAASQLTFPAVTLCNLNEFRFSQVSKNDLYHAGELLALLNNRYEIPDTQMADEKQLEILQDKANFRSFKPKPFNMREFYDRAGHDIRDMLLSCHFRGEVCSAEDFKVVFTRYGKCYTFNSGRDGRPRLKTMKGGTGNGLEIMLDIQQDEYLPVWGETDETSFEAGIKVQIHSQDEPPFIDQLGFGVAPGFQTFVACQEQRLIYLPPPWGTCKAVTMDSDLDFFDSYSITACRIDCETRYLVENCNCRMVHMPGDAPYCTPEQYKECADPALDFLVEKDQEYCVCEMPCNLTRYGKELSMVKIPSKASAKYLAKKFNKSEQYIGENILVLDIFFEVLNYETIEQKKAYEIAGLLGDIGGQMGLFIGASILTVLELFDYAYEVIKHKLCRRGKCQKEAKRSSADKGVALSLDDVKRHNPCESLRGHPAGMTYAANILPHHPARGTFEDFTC

[2] = biological target: T1, Acid-sensing ion channel 1 (Homo sapiens); test: Inhibition of human ASIC1a endogenously expressed in HEK293 cells clamped at -100 mV gated ionic current at 10 uM at pH 6.7 by standard whole cell patch clamp assay; format: cell-based
[3] = biological target: T1, Acid-sensing ion channel 1 (Homo sapiens); test: Reversible inhibition of human ASIC1a endogenously expressed in HEK293 cells clamped at -100 mV gated ionic current at 100 nM to 100 uM at pH 5.0 by standard whole cell patch clamp assay; format: cell-based
[4] = biological target: T1, Acid-sensing ion channel 1 (Homo sapiens); test: Reversible inhibition of human ASIC1a endogenously expressed in HEK293 cells clamped at -100 mV gated ionic current at 100 nM to 100 uM at pH 6.7 by standard whole cell patch clamp assay; format: cell-based
[5] = biological target: T1, Acid-sensing ion channel 1 (Homo sapiens); test: Inhibition of human ASIC1a endogenously expressed in HEK293 cells clamped at -100 mV gated ionic current at 10 uM at pH 5.0 by standard whole cell patch clamp assay; format: cell-based
[6] = biological target: T1, Acid-sensing ion channel 1 (Homo sapiens); test: Inhibition of human ASIC1a endogenously expressed in HEK293 cells clamped at -100 mV gated ionic current at 100 nM at pH 5.0 by standard whole cell patch clamp assay; format: cell-based
[7] = biological target: T1, Acid-sensing ion channel 1 (Homo sapiens); test: Inhibition of human ASIC1a endogenously expressed in HEK293 cells clamped at -100 mV gated ionic current at 100 uM at pH 6.7 by standard whole cell patch clamp assay; format: cell-based
[8] = biological target: T1, Acid-sensing ion channel 1 (Homo sapiens); test: Inhibition of human ASIC1a endogenously expressed in HEK293 cells clamped at -100 mV gated ionic current at 100 nM at pH 6.7 by standard whole cell patch clamp assay; format: cell-based
[9] = biological target: T2, Acid-sensing ion channel 1 (Homo sapiens, UniProt P78348); test: Inhibition of human ASIC1a endogenously expressed in HEK293 cells clamped at -100 mV gated ionic current at pH 6.7 by standard whole cell patch clamp assay; format: cell-based
T2 sequence (P78348 whole entry): T1 sequence (whole entry)

Hippocampus [10] = test: Inhibition of amplitude of inhibitory postsynaptic currents in Wistar rat hippocampal CA3-CA1 region at 100 nM by patch clamp method; format: functional, tissue-based
[11] = biological target: T1, Acid-sensing ion channel 1 (Homo sapiens); test: Inhibition of human ASIC1a endogenously expressed in HEK293 cells clamped at -20 mV gated ionic current at 100 nM by standard whole cell patch clamp assay; format: cell-based
[12] = biological target: T3, Acid-sensing ion channel 1 (Rattus norvegicus) (UniProt P55926); test: Inhibition of ASIC1a in Wistar rat hippocampal neurons assessed as ASIC1a-like currents level at 10 uM by patch clamp assay; set-up: scale not given: the % may be the effect or the level left
T3 sequence (whole entry): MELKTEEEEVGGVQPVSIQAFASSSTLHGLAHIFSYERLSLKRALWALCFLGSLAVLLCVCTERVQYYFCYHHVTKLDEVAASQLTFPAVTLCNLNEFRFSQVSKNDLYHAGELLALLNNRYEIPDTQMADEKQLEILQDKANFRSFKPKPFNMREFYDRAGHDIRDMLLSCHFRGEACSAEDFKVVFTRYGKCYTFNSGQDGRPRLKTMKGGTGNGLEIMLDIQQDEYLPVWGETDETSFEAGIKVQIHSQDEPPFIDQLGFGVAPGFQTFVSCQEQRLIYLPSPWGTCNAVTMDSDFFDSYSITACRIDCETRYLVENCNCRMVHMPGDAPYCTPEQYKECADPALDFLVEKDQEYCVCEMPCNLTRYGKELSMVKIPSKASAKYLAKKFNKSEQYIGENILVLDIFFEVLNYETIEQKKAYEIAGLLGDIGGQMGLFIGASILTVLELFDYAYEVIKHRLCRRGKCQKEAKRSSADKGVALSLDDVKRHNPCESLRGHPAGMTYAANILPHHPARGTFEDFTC

[13] = biological target: T4, Acid-sensing ion channel 3 (Rattus norvegicus) (UniProt O35240); test: Inhibition of ASIC3 in Wistar rat hippocampal neurons assessed as fast ASIC3-like currents level at 10 uM by patch clamp assay; set-up: scale not given: the % may be the effect or the level left
T4 sequence (whole entry): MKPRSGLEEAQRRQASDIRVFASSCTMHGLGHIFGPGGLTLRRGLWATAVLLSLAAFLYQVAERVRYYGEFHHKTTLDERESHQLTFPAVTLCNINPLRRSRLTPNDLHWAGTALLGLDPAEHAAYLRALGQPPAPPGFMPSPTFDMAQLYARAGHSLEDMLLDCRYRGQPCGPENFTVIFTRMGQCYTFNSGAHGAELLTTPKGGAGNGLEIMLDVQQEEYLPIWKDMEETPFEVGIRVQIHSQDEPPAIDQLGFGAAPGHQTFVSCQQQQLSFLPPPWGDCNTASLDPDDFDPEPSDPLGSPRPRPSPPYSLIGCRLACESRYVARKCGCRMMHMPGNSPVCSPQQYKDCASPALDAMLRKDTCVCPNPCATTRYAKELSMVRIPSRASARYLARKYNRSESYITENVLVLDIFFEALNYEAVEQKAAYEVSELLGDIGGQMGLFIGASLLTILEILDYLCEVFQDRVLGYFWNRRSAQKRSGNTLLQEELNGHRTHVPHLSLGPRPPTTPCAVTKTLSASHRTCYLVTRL

[14] = biological target: T2, Acid-sensing ion channel 1; test: Orthosteric non-competitive inhibition of human ASIC1a endogenously expressed in HEK293 cells clamped at -100 mV gated ionic current assessed as EC50 for steady state activation at 10 nM by standard whole cell patch clamp assay (reference value: 6.57 +/- 0.01 pH); format: cell-based
Hippocampus [15] = test: Increase in short-term potentiation in Wistar rat hippocampal CA3-CA1 region at 100 nM by patch clamp method (reference value: 225.9 +/- 12.4%); format: functional
[16] = biological target: T1, Acid-sensing ion channel 1 (Homo sapiens); test: Orthosteric non-competitive inhibition of human ASIC1a endogenously expressed in HEK293 cells clamped at -100 mV gated ionic current assessed as maximal evoked response for steady-state activation at 1 uM by standard whole cell patch clamp assay relative to untreated control; format: cell-based; set-up: scale not given: the % may be the effect or the level left
[17] = biological target: T1, Acid-sensing ion channel 1 (Homo sapiens); test: Reversible inhibition of human ASIC1a endogenously expressed in HEK293 cells clamped at -100 mV gated ionic current at pH 6.7 measured after drug wash out by standard whole cell patch clamp assay; format: cell-based
Hippocampus [18] = test: Effect on NMDAR-independent long-term potentiation in Wistar rat hippocampal MF-CA3 region at 100 nM in presence of NMDA receptor blocker MK801 by patch clamp method (reference value: 118.3 +/- 9.6%); format: functional
[19] = biological target: T5, Acid-sensing ion channel 2 (Rattus norvegicus) (UniProt Q62962); test: Inhibition of ASIC2 in Wistar rat hippocampal neurons assessed as slow ASIC2-like currents level at 10 uM by patch clamp assay; set-up: scale not given: the % may be the effect or the level left
T5 sequence (whole entry): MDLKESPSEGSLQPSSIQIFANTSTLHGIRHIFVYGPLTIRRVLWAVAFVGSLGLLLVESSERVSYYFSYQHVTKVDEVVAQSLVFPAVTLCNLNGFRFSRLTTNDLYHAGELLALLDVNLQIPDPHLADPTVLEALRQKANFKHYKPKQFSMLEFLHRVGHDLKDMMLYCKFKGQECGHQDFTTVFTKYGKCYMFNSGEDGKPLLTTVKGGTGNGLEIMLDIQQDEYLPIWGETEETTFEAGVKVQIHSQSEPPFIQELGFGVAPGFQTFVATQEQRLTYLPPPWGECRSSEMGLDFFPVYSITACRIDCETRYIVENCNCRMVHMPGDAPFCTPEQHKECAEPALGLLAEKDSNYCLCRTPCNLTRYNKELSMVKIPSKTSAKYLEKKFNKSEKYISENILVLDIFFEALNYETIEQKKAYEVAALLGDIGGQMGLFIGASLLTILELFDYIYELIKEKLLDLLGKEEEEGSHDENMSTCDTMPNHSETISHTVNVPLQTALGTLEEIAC

[20] = biological target: T1, Acid-sensing ion channel 1 (Homo sapiens); test: Orthosteric non-competitive inhibition of human ASIC1a endogenously expressed in HEK293 cells clamped at -100 mV gated ionic current assessed as maximal evoked response for steady-state activation at 100 nM by standard whole cell patch clamp assay relative to untreated control; format: cell-based; set-up: scale not given: the % may be the effect or the level left
Hippocampus [21] = test: Blocking of short-term potentiation in Wistar rat hippocampal CA3-CA1 regions at 100 nM by patch clamp method (Rvb =142.9 +/- 25%); format: functional
Hippocampus [22] = test: Increase in amplitude of field excitatory postsynaptic potential in Wistar rat hippocampal CA3-CA1 region at 100 nM by patch clamp method; format: functional, tissue-based
Hippocampus [23] = test: Increase in slope of field excitatory postsynaptic potential in Wistar rat hippocampal CA3-CA1 region at 100 nM by patch clamp method; format: functional, tissue-based
[24] = biological target: T1, Acid-sensing ion channel 1 (Homo sapiens); test: Orthosteric non-competitive inhibition of human ASIC1a endogenously expressed in HEK293 cells clamped at -100 mV gated ionic current assessed as maximal evoked response for steady-state activation at 10 nM by standard whole cell patch clamp assay relative to untreated control; format: cell-based; set-up: scale not given: the % may be the effect or the level left
Hippocampus [25] = test: Effect on amplitude of field excitatory postsynaptic potential in Wistar rat hippocampal CA3-CA1 region at 100 nM by patch clamp method; format: functional
[26] = biological target: T3, Acid-sensing ion channel 1 (Rattus norvegicus); test: Inhibition of ASIC1a in Wistar rat pyramidal hippocampal neurons assessed as ASIC1a-like currents level at 100 nM by patch clamp assay; set-up: scale not given: the % may be the effect or the level left
[27] = biological target: T1, Acid-sensing ion channel 1 (Homo sapiens); test: Inhibition of human ASIC1a endogenously expressed in HEK293 cells clamped at -100 mV gated ionic current at 100 nM in presence of cellular membrane depolarization by standard whole cell patch clamp assay; format: cell-based
[28] = biological target: T2, Acid-sensing ion channel 1; test: Orthosteric non-competitive inhibition of human ASIC1a endogenously expressed in HEK293 cells clamped at -100 mV gated ionic current assessed as EC50 for steady state activation at 100 nM by standard whole cell patch clamp assay (reference value: 6.57 +/- 0.01 pH); format: cell-based
[29] = biological target: T1, Acid-sensing ion channel 1 (Homo sapiens); test: Reversible inhibition of human ASIC1a endogenously expressed in HEK293 cells clamped at -100 mV gated ionic current at pH 5.0 measured after drug wash out by standard whole cell patch clamp assay; format: cell-based
Hippocampus [30] = test: Inhibition of amplitude of excitatory postsynaptic currents in Wistar rat hippocampal CA3-CA1 region at 100 nM by patch clamp method; format: functional, tissue-based
[31] = biological target: T2, Acid-sensing ion channel 1; test: Orthosteric non-competitive inhibition of human ASIC1a endogenously expressed in HEK293 cells clamped at -100 mV gated ionic current assessed as EC50 for steady state activation at 1 uM by standard whole cell patch clamp assay (reference value: 6.57 +/- 0.01 pH); format: cell-based
[32] = biological target: T3, Acid-sensing ion channel 1 (Rattus norvegicus); test: Inhibition of ASIC1a in Wistar rat pyramidal hippocampal neurons assessed as reduction in main ionic currents at 1 uM by patch clamp assay
[33] = biological target: T1, Acid-sensing ion channel 1 (Homo sapiens); test: Inhibition of human ASIC1a endogenously expressed in HEK293 cells clamped at -100 mV gated ionic current at 100 nM by standard whole cell patch clamp assay; format: cell-based
[34] = biological target: T2, Acid-sensing ion channel 1; test: Inhibition of human ASIC1a endogenously expressed in HEK293 cells clamped at -100 mV gated ionic current at pH 5.0 by standard whole cell patch clamp assay; format: cell-based
Hippocampus [35] = test: Effect on slope of field excitatory postsynaptic potential in Wistar rat hippocampal CA3-CA1 region at 100 nM by patch clamp method; format: functional

CCN(CC)CCN(Cc1ccccc1)c1ccc2cc(C(=N)N)c(=O)oc2c1
inhibition [1]: 28.8% | inhibition [2]: 22.1% | inhibition [3]: Active | inhibition [4]: Active | inhibition [5]: 65.7% | inhibition [6]: 96.1% | inhibition [7]: 3.7% | inhibition [8]: 68.9%

CCN(CC)CCN(Cc1ccc(Cl)cc1)c1ccc2cc(C(=N)N)c(=O)oc2c1
inhibition [2]: 2.5% | IC50 [9]: 0.0274 µM | inhibition (Hippocampus [10]): inactive | inhibition [11]: 45.8% | Activity [12]: 48.3% | Activity [13]: 45.2% | EC50 [14]: 6.5 pH | Activity (Hippocampus [15]): 193.2% | Activity [16]: 72.2% | inhibition [17]: Active | Activity (Hippocampus [18]): 117% | Activity [19]: 99.3% | Activity [20]: 83.9% | Activity (Hippocampus [21]): 106.2% | Activity (Hippocampus [22]): Active | Activity (Hippocampus [23]): Active | inhibition [5]: 44.8% | Activity [24]: 93.2% | Activity (Hippocampus [25]): 104.6% | Activity [26]: 9.39% | inhibition [27]: Active | EC50 [28]: 6.4 pH | inhibition [29]: Active | inhibition [6]: 98.6% | inhibition (Hippocampus [30]): inactive | EC50 [31]: 6.18 pH | inhibition [32]: inactive | inhibition [33]: 42.1% | IC50 [34]: 7.34 µM | Activity (Hippocampus [35]): 103.4% | inhibition [8]: 23.7%
